Data reported in patent US8003649B2 (AstraZeneca AB, priority 2007, dated 2011).

target: T1, Androgen Receptor (AR) (Homo sapiens, UniProt P10275, T878A); assay: LNCaP Androgen Receptor Down-regulation Cell Assay (immunofluorescence end point); format: cell-based; settings: LNCaP prostate carcinoma cells, compound incubation 20-22 hours, 50% reduction of the AR signal; read-out: Androgen Receptor Down-regulation Assay (a) IC50/μM
T1 construct: cell based immuno-fluorescence assay using the LNCaP prostate epithelial cell line; endogenous in cells; host or cells: LNCaP clone FGC (ATCC CRL-1740)
T1 sequence (P10275 1-920 T878A): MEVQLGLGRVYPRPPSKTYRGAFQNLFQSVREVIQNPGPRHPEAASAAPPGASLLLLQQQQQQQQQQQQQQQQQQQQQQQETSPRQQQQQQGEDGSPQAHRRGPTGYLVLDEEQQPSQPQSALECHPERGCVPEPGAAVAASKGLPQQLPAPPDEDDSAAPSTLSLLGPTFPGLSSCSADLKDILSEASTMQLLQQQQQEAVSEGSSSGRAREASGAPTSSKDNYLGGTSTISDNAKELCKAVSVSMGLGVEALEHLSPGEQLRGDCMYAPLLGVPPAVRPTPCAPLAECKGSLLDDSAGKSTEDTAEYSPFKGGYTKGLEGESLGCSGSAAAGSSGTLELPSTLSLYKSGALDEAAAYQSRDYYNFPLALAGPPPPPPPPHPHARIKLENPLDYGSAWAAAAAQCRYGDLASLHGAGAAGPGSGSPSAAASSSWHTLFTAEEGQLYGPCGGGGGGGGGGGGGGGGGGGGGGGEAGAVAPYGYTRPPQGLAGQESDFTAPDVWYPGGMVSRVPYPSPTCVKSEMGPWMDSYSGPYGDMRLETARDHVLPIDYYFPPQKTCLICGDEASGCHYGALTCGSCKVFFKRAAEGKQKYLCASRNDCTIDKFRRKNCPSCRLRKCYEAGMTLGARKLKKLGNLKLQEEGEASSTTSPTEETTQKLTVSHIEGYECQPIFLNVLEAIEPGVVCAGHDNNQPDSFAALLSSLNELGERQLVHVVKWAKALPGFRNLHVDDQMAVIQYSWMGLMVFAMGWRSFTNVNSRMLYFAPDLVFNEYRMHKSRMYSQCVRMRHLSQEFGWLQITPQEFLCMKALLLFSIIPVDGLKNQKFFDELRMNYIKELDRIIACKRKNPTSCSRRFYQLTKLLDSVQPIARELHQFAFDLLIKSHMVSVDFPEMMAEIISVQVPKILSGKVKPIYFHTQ
How it was run: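 LNCaP cells in medium with 5% charcoal-stripped FBS were plated overnight, then treated with a compound dilution series for 20-22 h at 37° C. After fixation, permeabilisation and immunostaining, AR-associated green fluorescence was quantified by laser-scanning microplate cytometry; AR down-regulation expressed as IC50 from fitted dose-response curves.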

First: CS(=O)(=O)c1ccc(CN2CCCN(c3ccc4nnc(C(F)(F)F)n4n3)CC2)cc1 [Example 166, 6-[4-[(4-methylsulfonylphenyl)methyl]-1,4-diazepan-1-yl]-3-(trifluoromethyl)-[1,2,4]triazolo[4,3-b]pyridazine]
Second: CCCCOc1ccc(CN2CCN(c3ccc4nnc(C(F)(F)F)n4n3)CC2)cc1 [Example 109, 6-[4-[(4-butoxyphenyl)methyl]piperazin-1-yl]-3-(trifluoromethyl)-[1,2,4]triazolo[4,3-b]pyridazine]
The DC50 of the first is 7.7-fold lower: 0.93 µM for the first, 7.2 µM for the second.

`FC(F)(F)Cc1nnc2ccc(N3CCN(C(c4ccccc4)c4ccccc4)CC3)nn12` [Example 4, 6-(4-benzhydrylpiperazin-1-yl)-3-(2,2,2-trifluoroethyl)-[1,2,4]triazolo[4,3-b]pyridazine] and `C[C@H](c1ccc(C#N)cc1)N1CCN(c2ccc3nnc(C(F)(F)F)n3n2)CC1` [Example 307, 4-[(1R)-1-[4-[3-(trifluoromethyl)[1,2,4]triazolo[4,3-b]pyridazin-6-yl]piperazin-1-yl]ethyl]benzonitrile] are within 1.5-fold of each other in DC50: 2.5 µM for the first, 3.4 µM for the second.

Going from `FC(F)(F)c1ccccc1CN1CCCN(c2ccc3nnc(C(F)(F)F)n3n2)CC1` [Example 174, 3-(trifluoromethyl)-6-[4-[[2-(trifluoromethyl)phenyl]methyl]-1,4-diazepan-1-yl]-[1,2,4]triazolo[4,3-b]pyridazine] to `Fc1ccc(CN2CCN(c3ccc4nnc(C(F)(F)F)n4n3)CC2)c(F)c1` [Example 382], the DC50 rises from 0.94 µM to 1.8 µM (1.9-fold).

Going from `CCCC(=O)N1CC2CN(c3ccc4nnc(C(F)(F)F)n4n3)CC2C1` (stereo not shown) [Example 34, 1-[2-[3-(trifluoromethyl)-[1,2,4]triazolo[4,3-b]pyridazin-6-yl]-1,3,3a,4,6,6a-hexahydropyrrolo[3,4-c]pyrrol-5-yl]butan-1-one] to `CCS(=O)(=O)N1CC2CN(c3ccc4nnc(C(F)(F)F)n4n3)CC2C1` (stereo not shown) [Example 215, 6-(5-ethylsulfonyl-1,3,3a,4,6,6a-hexahydropyrrolo[3,4-c]pyrrol-2-yl)-3-(trifluoromethyl)-[1,2,4]triazolo[3,4-f]pyridazine], the DC50 falls from 20 µM to 7.4 µM (2.7-fold).

First: CN(C)CCCOc1ccc(C2CCN(c3ccc4nnc(C(F)(F)F)n4n3)CC2)cc1 [Example 726]
Second: CN(C)CCOc1ccc(C2CCN(c3ccc4nnc(C(F)(F)F)n4n3)CC2)cc1 [Example 730]
The DC50 of the first is 1.9-fold higher: 1.4 µM for the first, 0.72 µM for the second.

`FC(F)(F)c1nnc2ccc(N3CC=C(c4cccnc4)CC3)nn12` [Example 605, 1′-[3-(trifluoromethyl)[1,2,4]triazolo[4,3-b]pyridazin-6-yl]-1′,2′,3′,6′-tetrahydro-3,4′-bipyridine] and `FC(F)(F)c1nnc2ccc(N3CCC(Oc4cccnc4)CC3)nn12` [Example 718] are within 1.5-fold of each other in DC50: 5 µM for the first, 3.6 µM for the second.

`COc1cccc(C2(O)CCN(c3ccc4nnc(C(F)(F)F)n4n3)CC2)c1` [Example 312] and `CCNC(=O)c1cccc(OC2CCN(c3ccc4nnc(C(F)(F)F)n4n3)CC2)c1` [Example 695] are within 1.5-fold of each other in DC50: 2.6 µM for the first, 3.3 µM for the second.

Going from `FC(F)(F)c1nnc2ccc(N3CCC(c4noc(-c5cccc(Cl)c5)n4)CC3)nn12` [Example 299] to `FC(F)(F)c1nnc2ccc(N3CCC(COc4cccc(Cl)n4)CC3)nn12` [Example 562, 6-[4-[[(6-chloropyridin-2-yl)oxy]methyl]piperidin-1-yl]-3-(trifluoromethyl)[1,2,4]triazolo[4,3-b]pyridazine], the DC50 rises from 0.84 µM to 2 µM (2.4-fold).

First: FC(F)(F)c1nnc2ccc(N3CCN(Cc4cccc(Cl)c4)CC3)nn12 [Example 97, 6-[4-[(3-chlorophenyl)methyl]piperazin-1-yl]-3-(trifluoromethyl)-[1,2,4]triazolo[4,3-b]pyridazine]
Second: Fc1cccc(CCN2CCN(c3ccc4nnc(C(F)(F)F)n4n3)CC2)c1 [Example 234]
The DC50 of the first is 5.6-fold lower: 0.36 µM for the first, 2 µM for the second.

First: FC(F)(F)c1nnc2ccc(N3CCN(Cc4cscn4)CC3)nn12 [Example 61, 6-[4-(1,3-thiazol-4-ylmethyl)piperazin-1-yl]-3-(trifluoromethyl)-[1,2,4]triazolo[4,3-b]pyridazine]
Second: FC(F)(F)c1nnc2ccc(N3CCN(Cc4cccc5cnccc45)CC3)nn12 [Example 65, 5-[[4-[3-(trifluoromethyl)-[1,2,4]triazolo[4,3-b]pyridazin-6-yl]piperazin-1-yl]methyl]isoquinoline]
The DC50 of the first is 9.7-fold higher: 7.4 µM for the first, 0.76 µM for the second.

First: O=S(=O)(c1ccc(F)cc1)N1CC2CN(c3ccc4nnc(C(F)(F)F)n4n3)CC2C1 (stereo not shown) [Example 453]
Second: Fc1ccc(CN2CC3CN(c4ccc5nnc(C(F)(F)F)n5n4)CC3C2)cc1 (stereo not shown) [Example 203, 6-[2-[(4-fluorophenyl)methyl]-1,3,3a,4,6,6a-hexahydropyrrolo[3,4-c]pyrrol-5-yl]-3-(trifluoromethyl)-[1,2,4]triazolo[4,3-b]pyridazine]
The DC50 of the first is 3.4-fold higher: 5.7 µM for the first, 1.7 µM for the second.

Compared with `CC1CN(c2ccc3nnc(C(F)(F)F)n3n2)C(C)CN1Cc1ccc(F)c(F)c1` (stereo not shown) [Example 219], `C[C@@H]1CN(Cc2ccc(F)c(F)c2)CCN1c1ccc2nnc(C(F)(F)F)n2n1` [Example 601] is 1.6-fold lower in DC50: 3.5 µM for the first, 2.2 µM for the second.

`C[C@H]1CN(c2ccc3nnc(C(F)(F)F)n3n2)CCN1Cc1ccc(C#N)cc1` [Example 571] and `Fc1ccc(OCC2CCN(c3ccc4nnc(C(F)(F)F)n4n3)CC2)cc1` [Example 463] are within 1.5-fold of each other in DC50: 0.96 µM for the first, 0.98 µM for the second.

First: COC(=O)c1cccc(C2CCN(c3ccc4nnc(C(F)(F)F)n4n3)C2)c1 (stereo not shown) [Example 334]
Second: FC(F)(F)c1cccc(C2CCN(c3ccc4nnc(C(F)(F)Cl)n4n3)C2)c1 (stereo not shown) [Example 336]
The DC50 of the first is 2.2-fold lower: 1.1 µM for the first, 2.4 µM for the second.

Going from `CN1CCC(NC(=O)c2ccc(C3CCN(c4ccc5nnc(C(F)(F)F)n5n4)CC3)cc2)CC1` [Example 641] to `O=C1OCc2ccccc2N1C1CCN(c2ccc3nnc(C(F)(F)F)n3n2)CC1` [Example 39, 1-[1-[3-(trifluoromethyl)-[1,2,4]triazolo[4,3-b]pyridazin-6-yl]piperidin-4-yl]-4H-3,1-benzoxazin-2-one], the DC50 rises from 1.4 µM to 5 µM (3.6-fold).

Going from `Fc1cccc(F)c1CN1CCN(c2ccc3nnc(C(F)F)n3n2)CC1` [Example 252] to `Cc1cc(CNC(=O)c2cccc(OC3CCN(c4ccc5nnc(C(F)(F)F)n5n4)CC3)c2)no1` [Example 702], the DC50 rises from 8.9 µM to greater than 12 µM.

target: T2, isolated rat AR-LBD (Rattus norvegicus, UniProt P15207); assay: Androgen Receptor Ligand Binding Domain competitive binding assay, Fluorescence Polarisation (PolarScreen); settings: 50% reduction in tracer compound binding to AR-LBD; read-out: Androgen Receptor FP Ligand-Binding Assay IC50/μM
T2 construct: purchased Invitrogen PV4293
T2 sequence (P15207 651-882 limits assumed): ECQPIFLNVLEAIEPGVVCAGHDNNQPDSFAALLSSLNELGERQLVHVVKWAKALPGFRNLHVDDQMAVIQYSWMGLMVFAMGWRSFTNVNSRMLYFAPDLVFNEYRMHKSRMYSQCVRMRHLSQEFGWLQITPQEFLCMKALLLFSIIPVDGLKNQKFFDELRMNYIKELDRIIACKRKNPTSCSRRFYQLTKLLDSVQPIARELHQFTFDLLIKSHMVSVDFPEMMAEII
Description: b) Androgen Receptor—Ligand Binding Domain Competitive Binding Assay
The ability of compounds to bind to isolated Androgen Receptor Ligand binding domain (AR-LBD) was assessed in competition assays using either a Fluorescence Polarisation (FP) or a LanthaScreen™ Time-Resolved Fluorescence Resonance Energy Transfer (TR-FRET) detection end-point.
For the FP test, an assay test kit was purchased from Invitrogen and used to measure compound binding to the isolated rat AR-LBD which shares 100% sequence identity to the human AR-LBD. The Invitrogen PolarScreen™ Androgen Receptor Competitor Assay Red (Product Code No. PV4293), is a fluorescence polarisation (FP)-based competition assay which measures if test compound can displace a fluorescently-labelled tracer compound. If the test compound binds to the AR-LBD it will prevent the formation of the receptor/tracer complex, which will result in a low polarisation value. […] The assay was performed as essentially described in the Invitrogen method with the exception that the final assay volume was 12 μl and this required an appropriate low volume black 384 well microtitre plate. Compounds were dosed directly from a compound source microplate containing serially diluted compound (4 wells containing 10 mM, […], 1 μM and 10 nM final compound respectively) to an assay microplate using the Labcyte Echo 550. The Echo 550 is a liquid handler that uses acoustic technology to perform direct microplate-to-microplate transfers of DMSO compound solutions and the system can be programmed to transfer multiple small nL volumes of compound from the different source plate wells to give the desired serial dilution of compound in the assay which is then back-filled to normalise the DMSO concentration across the dilution range. FP dose response data obtained with each compound was exported into a suitable software package (such as Origin) to perform curve fitting analysis. Competitive AR binding was expressed as an IC50 value. This was determined by calculation of the concentration of compound that was required to give a 50% reduction in tracer compound binding to AR-LBD.

Going from `CS(=O)(=O)c1ccc(CN2CCCN(c3ccc4nnc(C(F)(F)F)n4n3)CC2)cc1` [Example 166, 6-[4-[(4-methylsulfonylphenyl)methyl]-1,4-diazepan-1-yl]-3-(trifluoromethyl)-[1,2,4]triazolo[4,3-b]pyridazine] to `Cc1ccccc1CN1CCCN(c2ccc3nnc(C(F)(F)F)n3n2)CC1` [Example 183, 6-[4-[(2-methylphenyl)methyl]-1,4-diazepan-1-yl]-3-(trifluoromethyl)-[1,2,4]triazolo[4,3-b]pyridazine], the IC50 rises from 6.09 µM to 14.4 µM (2.4-fold).

`FC(F)(F)Cc1nnc2ccc(N3CCN(C(c4ccccc4)c4ccccc4)CC3)nn12` [Example 4, 6-(4-benzhydrylpiperazin-1-yl)-3-(2,2,2-trifluoroethyl)-[1,2,4]triazolo[4,3-b]pyridazine] and `FC(F)(F)c1ccccc1CN1CCCN(c2ccc3nnc(C(F)(F)F)n3n2)CC1` [Example 174, 3-(trifluoromethyl)-6-[4-[[2-(trifluoromethyl)phenyl]methyl]-1,4-diazepan-1-yl]-[1,2,4]triazolo[4,3-b]pyridazine] are within 1.5-fold of each other in IC50: 20.2 µM for the first, 16.3 µM for the second.

For `FC(F)(F)c1nnc2ccc(N3CC4CC3CN4Cc3ccccc3)nn12` (stereo not shown) [Example 41, 6-(5-benzyl-2,5-diazabicyclo[2.2.1]heptan-2-yl)-3-(trifluoromethyl)-[1,2,4]triazolo[4,3-b]pyridazine], the IC50 was 19.6 µM.
